Data taken from patent publication US20230257372A1 (CHONG KUN DANG PHARMACEUTICAL CORP., priority 2020, published 2023).

What was measured:
human recombinant HDAC6 = molecular target: T1, human recombinant HDAC6 (Homo sapiens, UniProt Q9UBN7); assay: HDAC6 enzyme activity inhibition (HDAC Fluorimetric Drug Discovery Kit); type: biochemical; conditions: for HDAC6 selectivity (fold): HDAC6 over HDAC1; for IC50: human recombinant HDAC6, same protocol as HDAC1
T1 construct: purchased Calbiochem Inc. 382180
T1 sequence (Q9UBN7 1-1215): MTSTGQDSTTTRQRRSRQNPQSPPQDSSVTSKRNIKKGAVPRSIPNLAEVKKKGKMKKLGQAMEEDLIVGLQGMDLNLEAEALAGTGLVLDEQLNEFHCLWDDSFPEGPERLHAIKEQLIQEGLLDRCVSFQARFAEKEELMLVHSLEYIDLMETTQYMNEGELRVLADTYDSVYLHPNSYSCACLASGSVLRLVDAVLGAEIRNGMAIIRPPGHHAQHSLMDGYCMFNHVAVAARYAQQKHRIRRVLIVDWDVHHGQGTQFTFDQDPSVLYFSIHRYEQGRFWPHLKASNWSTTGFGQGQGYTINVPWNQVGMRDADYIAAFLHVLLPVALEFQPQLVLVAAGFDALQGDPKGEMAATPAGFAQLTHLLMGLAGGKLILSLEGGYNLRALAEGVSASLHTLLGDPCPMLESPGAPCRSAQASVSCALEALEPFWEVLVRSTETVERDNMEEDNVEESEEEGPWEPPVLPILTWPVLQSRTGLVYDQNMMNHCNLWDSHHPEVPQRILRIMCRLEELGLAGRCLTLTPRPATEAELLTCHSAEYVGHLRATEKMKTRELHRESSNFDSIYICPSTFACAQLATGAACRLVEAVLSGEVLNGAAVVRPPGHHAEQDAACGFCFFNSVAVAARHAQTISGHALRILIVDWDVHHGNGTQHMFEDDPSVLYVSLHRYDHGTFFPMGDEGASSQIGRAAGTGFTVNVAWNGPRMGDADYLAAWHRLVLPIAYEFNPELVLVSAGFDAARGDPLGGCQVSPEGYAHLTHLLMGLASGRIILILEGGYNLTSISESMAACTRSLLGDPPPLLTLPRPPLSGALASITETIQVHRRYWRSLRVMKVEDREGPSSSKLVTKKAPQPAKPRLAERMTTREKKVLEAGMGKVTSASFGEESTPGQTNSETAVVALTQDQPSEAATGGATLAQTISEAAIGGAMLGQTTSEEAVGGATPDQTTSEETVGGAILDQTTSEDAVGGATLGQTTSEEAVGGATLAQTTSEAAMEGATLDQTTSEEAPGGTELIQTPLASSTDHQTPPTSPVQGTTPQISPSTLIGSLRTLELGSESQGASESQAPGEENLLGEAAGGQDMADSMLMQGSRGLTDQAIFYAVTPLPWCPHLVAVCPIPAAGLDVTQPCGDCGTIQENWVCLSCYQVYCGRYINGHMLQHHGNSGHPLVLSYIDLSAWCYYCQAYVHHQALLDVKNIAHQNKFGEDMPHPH
Procedure, shortened: (§1)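 Fluorimetric deacetylase read-out: after 30 min with Developer II following a 60 min, 30° C reaction of recombinant enzyme ([…]) with 10 μM substrate, across five-fold serial compound dilutions.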

human recombinant HDAC1 = molecular target: T2, human recombinant HDAC1 (Homo sapiens, UniProt Q13547); assay: HDAC1 enzyme activity inhibition (HDAC Fluorimetric Drug Discovery Kit); type: biochemical; conditions: human recombinant HDAC1, Fluor de Lys substrate, 30° C. 60 minutes; read-out: HDAC1
T2 construct: purchased Enzo Life Science, Inc. BML-SE456
Procedure, shortened: as §1

T2 sequence (Q13547 whole entry): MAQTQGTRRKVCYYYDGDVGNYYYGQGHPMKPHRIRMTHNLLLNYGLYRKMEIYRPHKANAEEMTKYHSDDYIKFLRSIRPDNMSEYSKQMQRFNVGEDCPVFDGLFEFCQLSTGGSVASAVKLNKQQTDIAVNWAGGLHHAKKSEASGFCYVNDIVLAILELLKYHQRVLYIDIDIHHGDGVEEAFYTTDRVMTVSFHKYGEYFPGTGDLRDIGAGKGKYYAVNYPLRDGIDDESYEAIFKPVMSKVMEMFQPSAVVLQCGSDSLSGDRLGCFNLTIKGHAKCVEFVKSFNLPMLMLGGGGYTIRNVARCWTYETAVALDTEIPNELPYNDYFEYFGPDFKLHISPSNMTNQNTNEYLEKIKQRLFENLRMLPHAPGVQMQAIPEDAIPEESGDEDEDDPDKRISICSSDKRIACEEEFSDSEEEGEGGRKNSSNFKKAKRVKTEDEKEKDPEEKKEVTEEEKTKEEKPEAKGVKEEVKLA

SMILES | HDAC6 selectivity (fold) (human recombinant HDAC6) | IC50 (human recombinant HDAC6) [nM] | IC50 (human recombinant HDAC1) [nM]
Fc1cc(-c2nnc(C(F)F)o2)ccc1Cn1cc(-c2ccccc2CNC2COC2)nn1 [Compound 4590, N-(2-(1-(4-(5-(difluoromethyl)-1,3,4-oxadiazol-2-yl)-2-fluorobenzyl)-1H-1,2,3-triazol-4-yl)benzyl)oxetan-3-amine] | 308 | 162 | > 50000
CCN1CCN(c2cc(-c3cn(Cc4ccc(-c5nnc(C(F)F)o5)cn4)nn3)ccn2)CC1 [Compound 4591, 2-(difluoromethyl)-5-(6-((4-(2-(4-ethylpiperazin-1-yl)pyridin-4-yl)-1H-1,2,3-triazol-1-yl)methyl)pyridin-3-yl)-1,3,4-oxadiazole] | 3546 | 14.1 | > 50000
CC(C)N1CCN(c2cc(-c3cn(Cc4ccc(-c5nnc(C(F)F)o5)cn4)nn3)ccn2)CC1 [Compound 4592, 2-(difluoromethyl)-5-(6-((4-(2-(4-isopropylpiperazin-1-yl)pyridin-4-yl)-1H-1,2,3-triazol-1-yl)methyl)pyridin-3-yl)-1,3,4-oxadiazole] | 3246 | 15.4 | > 50000
FC(F)c1nnc(-c2ccc(Cn3cc(-c4ccnc(N5CCN(C6CC6)CC5)c4)nn3)nc2)o1 [Compound 4593, 2-(6-((4-(2-(4-cyclopropylpiperazin-1-yl)pyridin-4-yl)-1H-1,2,3-triazol-1-yl)methyl)pyridin-3-yl)-5-(difluoromethyl)-1,3,4-oxadiazole] | 2127 | 23.5 | > 50000
FC(F)c1nnc(-c2ccc(Cn3cc(-c4ccnc(N5CCN(C6COC6)CC5)c4)nn3)nc2)o1 [Compound 4594, 2-(difluoromethyl)-5-(6-((4-(2-(4-(oxetan-3-yl)piperazin-1-yl)pyridin-4-yl)-1H-1,2,3-triazol-1-yl)methyl)pyridin-3-yl)-1,3,4-oxadiazole] | 2057 | 24.3 | > 50000
CN1Cc2cccc(-c3cn(Cc4ccc(-c5nnc(C(F)F)o5)cn4)nn3)c2C1 [Compound 4595, 2-(difluoromethyl)-5-(6-((4-(2-methylisoindolin-4-yl)-1H-1,2,3-triazol-1-yl)methyl)pyridin-3-yl)-1,3,4-oxadiazole] | 1046 | 47.8 | > 50000
CCN1Cc2cccc(-c3cn(Cc4ccc(-c5nnc(C(F)F)o5)cn4)nn3)c2C1 [Compound 4596, 2-(difluoromethyl)-5-(6-((4-(2-ethylisoindolin-4-yl)-1H-1,2,3-triazol-1-yl)methyl)pyridin-3-yl)-1,3,4-oxadiazole] | 782 | 63.9 | > 50000
CC(C)N1Cc2cccc(-c3cn(Cc4ccc(-c5nnc(C(F)F)o5)cn4)nn3)c2C1 [Compound 4597, 2-(difluoromethyl)-5-(6-((4-(2-isopropylisoindolin-4-yl)-1H-1,2,3-triazol-1-yl)methyl)pyridin-3-yl)-1,3,4-oxadiazole] | 813 | 61.5 | > 50000
FC(F)c1nnc(-c2ccc(Cn3cc(-c4cccc5c4CN(C4CCC4)C5)nn3)nc2)o1 [Compound 4598, 2-(6-((4-(2-cyclobutylisoindolin-4-yl)-1H-1,2,3-triazol-1-yl)methyl)pyridin-3-yl)-5-(difluoromethyl)-1,3,4-oxadiazole] | 1108 | 45.1 | > 50000
FC(F)c1nnc(-c2ccc(Cn3cc(-c4cccc5c4CN(C4COC4)C5)nn3)nc2)o1 [Compound 4599, 2-(difluoromethyl)-5-(6-((4-(2-(oxetan-3-yl)isoindolin-4-yl)-1H-1,2,3-triazol-1-yl)methyl)pyridin-3-yl)-1,3,4-oxadiazole] | 662 | 75.5 | > 50000
Fc1c(-c2cn(Cc3ccc(-c4nnc(C(F)F)o4)cn3)nn2)cccc1N1CCN(CC2(F)CC2)CC1 [Compound 4600, 2-(difluoromethyl)-5-(6-((4-(2-fluoro-3-(4-((1-fluorocyclopropyl)methyl)piperazin-1-yl)phenyl)-1H-1,2,3-triazol-1-yl)methyl)pyridin-3-yl)-1,3,4-oxadiazole] | 1533 | 32.6 | > 50000
Fc1c(-c2cn(Cc3ccc(-c4nnc(C(F)F)o4)cn3)nn2)cccc1N1CCN(CC2CC(F)(F)C2)CC1 [Compound 4601, 2-(6-((4-(3-(4-((3,3-difluorocyclobutyl)methyl)piperazin-1-yl)-2-fluorophenyl)-1H-1,2,3-triazol-1-yl)methyl)pyridin-3-yl)-5-(difluoromethyl)-1,3,4-oxadiazole] | 1392 | 35.9 | > 50000
Fc1cc(-c2nnc(C(F)F)o2)ccc1Cn1cc(-c2cccc(N3CCN(CC4(F)CC4)CC3)c2F)nn1 [Compound 4602, 2-(difluoromethyl)-5-(3-fluoro-4-((4-(2-fluoro-3-(4-((1-fluorocyclopropyl)methyl)piperazin-1-yl)phenyl)-1H-1,2,3-triazol-1-yl)methyl)phenyl)-1,3,4-oxadiazole] | 313 | 160 | > 50000
Fc1cc(-c2nnc(C(F)F)o2)ccc1Cn1cc(-c2cccc(N3CCN(CC4CC(F)(F)C4)CC3)c2F)nn1 [Compound 4603, 2-(4-((4-(3-(4-((3,3-difluorocyclobutyl)methyl)piperazin-1-yl)-2-fluorophenyl)-1H-1,2,3-triazol-1-yl)methyl)-3-fluorophenyl)-5-(difluoromethyl)-1,3,4-oxadiazole] | 744 | 67.2 | > 50000
CN(C)[C@H]1CCN(Cc2ccc(-c3cn(Cc4ccc(-c5nnc(C(F)F)o5)cc4F)nn3)cc2)C1 [Compound 4604, (S)-1-(4-(1-(4-(5-(difluoromethyl)-1,3,4-oxadiazol-2-yl)-2-fluorobenzyl)-1H-1,2,3-triazol-4-yl)benzyl)-N,N-dimethylpyrrolidin-3-amine] | 2347 | 21.3 | > 50000
CN(C)[C@@H]1CCN(Cc2ccc(-c3cn(Cc4ccc(-c5nnc(C(F)F)o5)cc4F)nn3)cc2)C1 [Compound 4605, (R)-1-(4-(1-(4-(5-(difluoromethyl)-1,3,4-oxadiazol-2-yl)-2-fluorobenzyl)-1H-1,2,3-triazol-4-yl)benzyl)-N,N-dimethylpyrrolidin-3-amine] | 2380 | 21 | > 50000
Fc1cc(-c2nnc(C(F)F)o2)ccc1Cn1cc(-c2ccc(CN3CC[C@H](F)C3)cc2)nn1 [Compound 4606, (S)-2-(difluoromethyl)-5-(3-fluoro-4-((4-(4-((3-fluoropyrrolidin-1-yl)methyl)phenyl)-1H-1,2,3-triazol-1-yl)methyl)phenyl)-1,3,4-oxadiazole] | 2415 | 20.7 | > 50000
Fc1cc(-c2nnc(C(F)F)o2)ccc1Cn1cc(-c2ccc(CN3CC[C@@H](F)C3)cc2)nn1 [Compound 4607, (R)-2-(difluoromethyl)-5-(3-fluoro-4-((4-(4-((3-fluoropyrrolidin-1-yl)methyl)phenyl)-1H-1,2,3-triazol-1-yl)methyl)phenyl)-1,3,4-oxadiazole] | 2512 | 19.9 | > 50000
CCN(CC)Cc1ccc(-c2cn(Cc3ccc(-c4nnc(C(F)F)o4)cc3F)nn2)cc1 [Compound 4608, N-(4-(1-(4-(5-(difluoromethyl)-1,3,4-oxadiazol-2-yl)-2-fluorobenzyl)-1H-1,2,3-triazol-4-yl)benzyl)-N-ethylethanamine] | 1893 | 26.4 | > 50000
